As usually defined, the IC50 is the concentration that inhibits the measured activity by half. A word on the inhibition: it is the relative decrease from the control value, in per cent. As usually defined, the Ki is the equilibrium dissociation constant of an inhibitor or competing ligand from its target.

Data set [1] has as its target T1, Xanthine dehydrogenase/oxidase (Bos taurus, UniProt P80457). Briefly: Inhibition of bovine milk xanthine oxidase assessed as reduction in uric acid formation using xanthine as substrate preincubated for 15 mins followed by substrate addition measured for every 30 sec by spectrophotometric analysis.
Data set [2] deals with T1, Xanthine dehydrogenase/oxidase. Briefly: Inhibition of bovine milk xanthine oxidase assessed as reduction in uric acid formation at 10 uM using xanthine as substrate preincubated for 15 mins followed by substrate addition measured for every 30 sec by spectrophotometric analysis relative to control. Particulars: cattle, 0.5 min.
Data set [3] concerns Rattus norvegicus. As to the kind of experiment: Hypouricemic activity in Sprague-Dawley rat model of Potassium oxonate-induced acute hyperuricemia assessed as decrease in serum uric acid at 30 to 90 mg/kg, IG administered after potassium oxonate treatment and measured at 1 hr. The format is functional, organism-based. To be noted: dose 30-90 mg/kg.
Data set [4] relates to Rattus norvegicus. Briefly: Hypouricemic activity in Sprague-Dawley rat model of Potassium oxonate-induced acute hyperuricemia assessed as decrease in serum uric acid AUC (1 to 8 hrs) at 30 to 90 mg/kg, IG administered after potassium oxonate treatment and measured at 1 hr. Format: functional, organism-based. To be noted: dose 30-90 mg/kg.
In data set [5] the target is T1, Xanthine dehydrogenase/oxidase. As to the kind of experiment: Inhibition of bovine milk xanthine oxidase assessed as decrease in Vmax at 0.01 to 0.06 uM by Lineweaver-Burk plot analysis. To be noted: cattle, dose 0.01-0.06 µM.
The target is the same in data set [6]. Briefly: Inhibition of bovine milk xanthine oxidase assessed as increase in Km at 0.01 to 0.06 uM by Lineweaver-Burk plot analysis. To be noted: cattle, dose 0.01-0.06 µM.
Data set [7] shares this target. Briefly: Mixed type inhibition of bovine milk xanthine oxidase assessed as inhibitory constant using xanthine as substrate preincubated for 15 mins followed by substrate addition measured for every 30 sec by spectrophotometric analysis.
In data set [8] the test system is Rattus norvegicus. Briefly: Hypouricemic activity in Sprague-Dawley rat model of Potassium oxonate-induced acute hyperuricemia assessed as decrease in serum uric acid at 10 mg/kg, IG administered after potassium oxonate treatment and measured upto 8 hrs. Format: functional, organism-based. Particulars: time hrs <=8.

The structures appear in SMILES notation. Active and inactive are the calls of the source. The calls are words filed in the database; no cut-off is given here. Bounds are passed on as bounds.

T1 sequence (P80457 whole entry): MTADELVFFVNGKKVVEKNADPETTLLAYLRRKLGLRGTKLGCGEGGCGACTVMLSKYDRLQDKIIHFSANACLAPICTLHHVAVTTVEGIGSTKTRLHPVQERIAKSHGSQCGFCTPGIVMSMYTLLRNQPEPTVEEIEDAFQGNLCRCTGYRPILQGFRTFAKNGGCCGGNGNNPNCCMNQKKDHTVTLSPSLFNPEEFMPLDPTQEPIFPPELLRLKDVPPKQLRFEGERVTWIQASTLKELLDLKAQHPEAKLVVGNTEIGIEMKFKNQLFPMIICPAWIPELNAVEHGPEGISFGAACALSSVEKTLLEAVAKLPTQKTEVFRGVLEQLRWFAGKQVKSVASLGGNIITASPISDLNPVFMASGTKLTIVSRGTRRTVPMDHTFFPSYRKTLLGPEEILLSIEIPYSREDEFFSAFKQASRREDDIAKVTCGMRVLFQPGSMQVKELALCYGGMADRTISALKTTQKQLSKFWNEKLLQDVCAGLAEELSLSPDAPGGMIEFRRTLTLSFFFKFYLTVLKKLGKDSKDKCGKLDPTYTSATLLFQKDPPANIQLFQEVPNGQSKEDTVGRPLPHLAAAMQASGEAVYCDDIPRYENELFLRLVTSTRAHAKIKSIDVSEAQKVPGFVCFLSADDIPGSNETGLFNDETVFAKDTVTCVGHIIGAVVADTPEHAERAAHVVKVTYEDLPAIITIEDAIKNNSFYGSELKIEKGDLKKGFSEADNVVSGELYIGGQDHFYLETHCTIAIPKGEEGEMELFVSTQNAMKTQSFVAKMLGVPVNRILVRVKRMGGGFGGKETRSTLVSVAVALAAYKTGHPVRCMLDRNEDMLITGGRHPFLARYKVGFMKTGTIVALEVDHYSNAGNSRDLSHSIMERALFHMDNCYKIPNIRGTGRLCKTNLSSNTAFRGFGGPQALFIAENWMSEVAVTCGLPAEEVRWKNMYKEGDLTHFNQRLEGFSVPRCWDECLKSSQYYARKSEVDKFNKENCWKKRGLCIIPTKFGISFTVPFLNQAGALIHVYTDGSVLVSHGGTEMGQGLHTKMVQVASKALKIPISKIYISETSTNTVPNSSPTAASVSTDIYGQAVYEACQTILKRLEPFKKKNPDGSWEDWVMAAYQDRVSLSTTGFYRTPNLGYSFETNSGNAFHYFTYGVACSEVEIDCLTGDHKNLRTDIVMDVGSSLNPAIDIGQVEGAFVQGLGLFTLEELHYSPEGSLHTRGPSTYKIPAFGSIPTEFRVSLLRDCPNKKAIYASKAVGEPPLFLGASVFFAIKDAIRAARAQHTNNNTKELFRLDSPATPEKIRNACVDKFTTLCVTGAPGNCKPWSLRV

`N#Cc1cc(-c2nccc(O)n2)ccc1OCC1CC1`: in data set [1], the IC50 was determined as 0.093 µM.
As for `COc1ccc(COc2ccc(-c3nccc(O)n3)cc2C#N)cc1`, the IC50 in data set [1] came to 0.193 µM.
Same read-out and setting: as for `CC(C)Oc1ccc(-c2nccc(O)n2)cc1C#N`, the figure is 0.074 µM.
Regarding `N#Cc1cc(-c2nccc(O)n2)ccc1O`, in data set [2], the inhibition at 10 µM was less than 50%.
Take `CC(C)CCOc1ccc(-c2nccc(O)n2)cc1C#N`: the result in data set [3] and in data set [4] was Active. Besides, the “inhibition (INH)” value in data set [5] and in data set [6] was “Active” in each case. In addition, the 50% inhibitory concentration (IC50) in data set [1] came out at 0.046 µM. Also, in data set [7], the inhibitory constant (Ki) turned out to be 0.018 µM. Moreover, the outcome in data set [8] was inactive.
Consider `N#Cc1cc(-c2nc(N)cc(O)n2)ccc1OCc1ccccc1`, for which the half-inhibitory concentration (IC50) in data set [1] was found to be 0.209 µM.
For the compound `N#Cc1cc(-c2nccc(N)n2)ccc1OCC1CCCCC1`, the IC50 in data set [1] worked out at 0.539 µM.
On the same count and under the same terms, next, `N#Cc1cc(-c2ncccn2)ccc1OCc1ccccc1`: 1.95 µM; `N#Cc1cc(-c2nccc(O)n2)ccc1OCc1ccccc1F`: 0.06 µM; `N#Cc1cc(-c2nccc(O)n2)ccc1OCc1ccc(Br)cc1`: 0.095 µM.
Turning to `COc1ccc(-c2nccc(O)n2)cc1C#N`, the IC50 in data set [1] turned out to be 0.179 µM.
Take `CC(C)=COc1ccc(-c2nccc(O)n2)cc1C#N`: the IC50 in data set [1] amounted to 0.055 µM.
For `CC(C)COc1ccc(-c2nccc(O)n2)cc1C#N`, the 50% inhibitory concentration (IC50) in data set [1] is 0.069 µM.
Still for that read-out and setting: as for `N#Cc1cc(-c2nc(N)cc(O)n2)ccc1OCC1CCCCC1`, the figure is 0.275 µM; as for `CC(C)COc1ccc(-c2nccc(N)n2)cc1C#N`, 0.262 µM; as for `N#Cc1cc(-c2nccc(O)n2)ccc1OCc1ccc(Cl)cc1`, 0.148 µM.
For the compound `CC(C)COc1ccc(-c2ncccn2)cc1C#N`, the concentration for half-maximal inhibition (IC50) in data set [1] was found to be 1.61 µM.
Same read-out and setting: as for `Cc1ccc(COc2ccc(-c3nccc(O)n3)cc2C#N)cc1`, the figure is 0.079 µM; as for `N#Cc1cc(-c2nccc(O)n2)ccc1OCc1cccc(F)c1`, 0.077 µM; as for `CC(C)COc1ccc(-c2nc(N)cc(O)n2)cc1C#N`, 0.13 µM.
As for `N#Cc1cc(-c2nccc(O)n2)ccc1OCc1ccccc1`, the concentration for half-maximal inhibition (IC50) in data set [1] is 0.066 µM.
For the compound `N#Cc1cc(-c2nccc(O)n2)ccc1OCC1CCCCC1`, the IC50 in data set [1] came to 0.073 µM.
Still for that read-out and setting: as for `N#Cc1cc(-c2nccc(O)n2)ccc1OCc1ccc(F)cc1`, the figure is 0.075 µM; as for `CC(C)(C)c1ccc(COc2ccc(-c3nccc(O)n3)cc2C#N)cc1`, 0.282 µM; as for `N#Cc1cc(-c2ncccn2)ccc1OCC1CCCCC1`, 4.45 µM.
On to `N#Cc1cc(-c2nccc(N)n2)ccc1OCc1ccccc1`, for which the IC50 in data set [1] was found to be 0.347 µM.
